Assay results taken from patent US8466089B2, “Pyrazole compounds, process for their production and herbicides containing them” (Ishihara Sangyo Kaisha, Ltd., priority 2008, dated 2013).

Tests used:
Format in all cases: in vivo
[1] = test system: soybean (Glycine max Merr.); assay: Test Example 2, soil application on the day after sowing; details: 21st to 22nd day after application, visual, read-out: Growth inhibition rate (%) Soybean
Summary of the method: (§1)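 Soil treatment one day post-sowing in upland soil pots, active ingredient at prescribed amounts in 500 L/ha spray water; percent inhibition versus untreated scored visually on day 21–22.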

[2] = test system: crabgrass (Digitaria sanquinalis L.); assay: as above; details: 21st to 22nd day after application, visual, read-out: Growth inhibition rate (%) Crabgrass
Summary of the method: as §1

corn (Zea mays L.) [3] = assay: as above; details: 21st to 22nd day after application, visual, read-out: Growth inhibition rate (%) Corn
Summary of the method: as §1

[4] = test system: velvetleaf (Abutilon theophrasti MEDIC.); assay: as above; details: 21st to 22nd day after application, visual, read-out: Growth inhibition rate (%) Velvetleaf
Summary of the method: as §1

wheat (Triticum spp.) = assay: as above; details: 21st to 22nd day after application, visual, read-out: Growth inhibition rate (%) Wheat
Summary of the method: as §1

[5] = test system: green foxtail (Setaria viridis L.); assay: as above; details: 21st to 22nd day after application, visual, read-out: Growth inhibition rate (%) Green foxtail
Summary of the method: as §1

[6] = test system: barnyardgrass (Echinochloa crus-galli L.); assay: as above; details: 21st to 22nd day after application, visual, read-out: Growth inhibition rate (%) Barnyardgrass
Summary of the method: as §1

rice (Oryza sativa L.) [7] = assay: as above; details: 21st to 22nd day after application, visual, read-out: Growth inhibition rate (%) Rice
Summary of the method: as §1

[8] = test system: prickly sida (Sida spinosa L.); assay: as above; details: 21st to 22nd day after application, visual, read-out: Growth inhibition rate (%) Prickly sida
Summary of the method: as §1

[9] = test system: redroot pigweed (Amaranthus retroflexus L.); assay: as above; details: 21st to 22nd day after application, visual, read-out: Growth inhibition rate (%) Redroot pigweed
Summary of the method: as §1

corn (Zea mays L.) [10] = assay: Test Example 1, foliar treatment in upland pots; details: 20th to 22nd day after application, visual, read-out: Growth inhibition rate (%) Corn
Summary of the method: (§2)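 Compound applied to leaves of pot-grown corn (2.0–3.3 leaf), soybean (primary leaf to 0.3 leaf), rice (1.2–2.5 leaf) and green foxtail (1.5–3.0 leaf); carrier 500 L/ha water, 0.1 vol% spreader. Percent inhibition assessed visually after 20–22 days.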

[11] = test system: velvetleaf (Abutilon theophrasti MEDIC.); assay: Test Example 1, foliar treatment in upland pots; details: 20th to 22nd day after application, visual, read-out: Growth inhibition rate (%) Velvetleaf
[12] = test system: green foxtail (Setaria viridis L.); assay: Test Example 1, foliar treatment in upland pots; details: 20th to 22nd day after application, visual, read-out: Growth inhibition rate (%) Green foxtail
Summary of the method: as §2

[13] = test system: barnyardgrass (Echinochloa crus-galli L.); assay: Test Example 1, foliar treatment in upland pots; details: 20th to 22nd day after application, visual, read-out: Growth inhibition rate (%) Barnyardgrass
rice (Oryza sativa L.) [14] = assay: Test Example 1, foliar treatment in upland pots; details: 20th to 22nd day after application, visual, read-out: Growth inhibition rate (%) Rice
Summary of the method: as §2

[15] = test system: redroot pigweed (Amaranthus retroflexus L.); assay: Test Example 1, foliar treatment in upland pots; details: 20th to 22nd day after application, visual, read-out: Growth inhibition rate (%) Redroot pigweed
[16] = test system: crabgrass (Digitaria sanguinalis L.); assay: Test Example 1, foliar treatment in upland pots; details: 20th to 22nd day after application, visual, read-out: Growth inhibition rate (%) Crabgrass

Compound | inhibition at 250 g/ha [1] [%] | inhibition at 250 g/ha [2] [%] | inhibition at 250 g/ha (corn (Zea mays L.) [3]) [%] | inhibition at 250 g/ha [4] [%] | inhibition at 250 g/ha (wheat (Triticum spp.)) [%] | inhibition at 250 g/ha [5] [%] | inhibition at 250 g/ha [6] [%] | inhibition at 250 g/ha (rice (Oryza sativa L.) [7]) [%] | inhibition at 250 g/ha [8] [%] | inhibition at 250 g/ha [9] [%] | inhibition at 7 g/ha (corn (Zea mays L.) [10]) [%] | inhibition at 7 g/ha [11] [%] | inhibition at 7 g/ha [12] [%] | inhibition at 7 g/ha [13] [%] | inhibition at 7 g/ha (rice (Oryza sativa L.) [14]) [%] | inhibition at 7 g/ha [15] [%] | inhibition at 7 g/ha [16] [%]
COCCOc1c(S(C)(=O)=O)ccc(C(=O)c2c(C)nn(C)c2OC(C)OC(=O)OC)c1C (stereo not shown) [Compound No. 1-6, 1-(4-(3-(2-Methoxyethoxy)-2-methyl-4-(methylsulfonyl)benzoyl)-1,3-dimethyl-1H-pyrazol-5-yloxy)ethyl methyl carbonate] | 0 | 100 | 0 | 100 | 5 | 70 | 100 | 98 | 99 | 100 | 0 | 98 | 95 | 90 | 70 | 90 | 90
CCn1ncc(C(=O)c2ccc(S(C)(=O)=O)c(OCCOC)c2C)c1OC(C)OC(=O)OC (stereo not shown) [Compound No. 2-1, 1-(1-Ethyl-4-(3-(2-methoxyethoxy)-2-methyl-4-(methylsulfonyl)benzoyl)-1H-pyrazol-5-yloxy)ethyl methyl carbonate] | 0 | 100 | 0 | 100 | 0 | 100 | 95 | 98 | 90 | 100 | 0 | 100 | 100 | 95 | 70 | 90 | 100
COCCOc1c(S(C)(=O)=O)ccc(C(=O)c2cnn(C(C)C)c2OC(C)OC(=O)OC)c1C (stereo not shown) [Compound No. 4-1, 1-(1-Isopropyl-4-(3-(2-methoxyethoxy)-2-methyl-4-(methylsulfonyl)benzoyl)-1H-pyrazol-5-yloxy)ethyl methyl carbonate] | 0 | 100 | 0 | 100 | 10 | 100 | 100 | 98 | 95 | 100 | 0 | 100 | 95 | 90 | 80 | 85 | 90
CCCn1ncc(C(=O)c2ccc(S(C)(=O)=O)c(OCCOC)c2C)c1O [Compound No. 7-1, (5-Hydroxy-1-n-propyl-1H-pyrazol-4-yl)(3-(2-methoxyethoxy)-2-methyl-4-(methylsulfonyl)phenyl)ketone] | 20 | 100 | 0 | 95 | 40 | 90 | 98 | 98 | 80 | 100 | 0 | 75 | 70 | 60 | 10 | 70 | 70
COCCOc1c(S(C)(=O)=O)ccc(C(=O)c2c(C)nn(C)c2O)c1C [Compound No. 5-2, (5-Hydroxy-1,3-dimethyl-1H-pyrazol-4-yl)(3-(2-methoxyethoxy)-2-methyl-4-(methylsulfonyl)phenyl)ketone] | 20 | 100 | 0 | 70 | 0 | 60 | 10 | 10 | 0 | 90 | 0 | 70 | 100 | 90 | 50 | 90 | 90
